Nine molecules from ChEMBL document CHEMBL1201862, “PubChem BioAssay data set” (2004) can be followed below.

Broadly, the AC50 is the concentration giving half of the maximal activity seen. The EC50 is the concentration needed to bring the measured effect to its halfway point. By IC50 is commonly meant the concentration at which inhibition is half-maximal. As a reminder, the CC50 is the concentration at which the toxic effect on the cells reaches its halfway point.

A short description of assay [1]: viability loss in HepG2 hepatoma cells – cell-based, ATP luminescence, cherry-pick, activator set 2, cytotoxicity control, dose response (AID 1053143). The class given is functional.
Assay [2] concerns the target T1, Oxysterols receptor LXR-beta (Homo sapiens, UniProt P55055).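 Further: agonist activity at LXR measured by a cell-based luminescence readout across a dose range, run as a counterscreen for daf-12 agonists; HEK293 cells with Gal4-LXR fusion and GAL4-driven luciferase reporter; potency for activation of Gal4-LXR reporter so compounds are agonists.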
T1 sequence (P55055 whole entry): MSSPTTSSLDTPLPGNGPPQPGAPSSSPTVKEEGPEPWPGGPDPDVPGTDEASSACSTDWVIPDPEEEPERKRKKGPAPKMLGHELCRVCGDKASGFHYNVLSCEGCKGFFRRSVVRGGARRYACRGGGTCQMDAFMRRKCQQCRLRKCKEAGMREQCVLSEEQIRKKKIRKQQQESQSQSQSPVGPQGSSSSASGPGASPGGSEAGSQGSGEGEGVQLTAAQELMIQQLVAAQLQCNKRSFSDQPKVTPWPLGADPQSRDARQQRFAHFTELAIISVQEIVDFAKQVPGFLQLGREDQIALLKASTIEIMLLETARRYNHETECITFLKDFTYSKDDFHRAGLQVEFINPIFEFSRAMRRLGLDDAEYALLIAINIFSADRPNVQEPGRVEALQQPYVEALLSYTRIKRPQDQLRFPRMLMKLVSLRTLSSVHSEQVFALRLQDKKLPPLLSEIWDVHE
It is filed as functional, cell-based.

Another assay deals with Nonstructural protein 1 (Influenza A virus, UniProt Q194T2). The class given is functional, Influenza A virus (A/California/07/2009(H1N1)).
Nonstructural protein 1, sequence (Q194T2 whole entry): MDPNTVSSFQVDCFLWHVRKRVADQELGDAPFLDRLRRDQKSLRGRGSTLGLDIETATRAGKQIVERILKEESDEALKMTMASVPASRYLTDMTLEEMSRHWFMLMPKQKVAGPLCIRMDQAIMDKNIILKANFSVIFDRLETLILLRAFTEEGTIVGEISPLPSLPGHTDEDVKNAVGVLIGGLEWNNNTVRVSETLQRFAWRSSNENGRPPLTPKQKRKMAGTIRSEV
A short description of assay [3]: viability loss in HeLa cells – cytotoxicity control for MgcRacGAP inhibitor project, dose response (AID 624300). The class given is functional.
In assay [4] the target is T2, Rac GTPase-activating protein 1 (Homo sapiens, UniProt Q9H0H5).
T2 sequence (Q9H0H5 whole entry): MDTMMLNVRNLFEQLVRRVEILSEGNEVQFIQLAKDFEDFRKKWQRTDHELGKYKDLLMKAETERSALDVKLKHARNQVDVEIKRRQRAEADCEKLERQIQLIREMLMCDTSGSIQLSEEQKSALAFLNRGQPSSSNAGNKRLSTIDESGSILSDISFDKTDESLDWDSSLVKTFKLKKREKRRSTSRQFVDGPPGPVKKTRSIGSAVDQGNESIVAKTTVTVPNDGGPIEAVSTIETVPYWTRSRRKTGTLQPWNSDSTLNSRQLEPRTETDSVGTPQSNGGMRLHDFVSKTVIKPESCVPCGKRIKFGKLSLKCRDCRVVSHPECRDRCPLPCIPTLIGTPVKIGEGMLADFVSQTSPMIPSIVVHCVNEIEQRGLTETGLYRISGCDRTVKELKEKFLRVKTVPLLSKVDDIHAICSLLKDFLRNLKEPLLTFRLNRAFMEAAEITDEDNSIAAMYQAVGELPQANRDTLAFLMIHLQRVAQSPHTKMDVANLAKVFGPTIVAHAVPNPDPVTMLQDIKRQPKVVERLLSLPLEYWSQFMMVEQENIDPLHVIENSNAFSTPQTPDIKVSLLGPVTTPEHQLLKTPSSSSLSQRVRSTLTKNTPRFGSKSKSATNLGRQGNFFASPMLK
As to the kind of experiment: blockers of MgcRacGAP-driven Rac1 GTP hydrolysis – biochemical, ADP Hunter fluorescence, primary and confirmatory, confirmation (AID 624330). The class given is functional.

Assay [5] concerns the target T3, DNA repair protein RAD52 homolog (Homo sapiens, UniProt P43351).
T3 sequence (P43351 whole entry): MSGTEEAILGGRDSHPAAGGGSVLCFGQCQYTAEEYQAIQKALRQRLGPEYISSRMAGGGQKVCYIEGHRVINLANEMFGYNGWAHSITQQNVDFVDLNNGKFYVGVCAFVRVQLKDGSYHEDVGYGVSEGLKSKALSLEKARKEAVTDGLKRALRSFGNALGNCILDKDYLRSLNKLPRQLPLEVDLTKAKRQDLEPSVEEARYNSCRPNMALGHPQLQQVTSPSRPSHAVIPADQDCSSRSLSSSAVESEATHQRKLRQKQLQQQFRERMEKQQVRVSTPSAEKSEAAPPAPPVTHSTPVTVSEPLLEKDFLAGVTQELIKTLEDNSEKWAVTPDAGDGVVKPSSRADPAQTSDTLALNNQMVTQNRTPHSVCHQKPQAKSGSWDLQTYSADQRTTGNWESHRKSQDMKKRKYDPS
It is filed as functional, biochemical.

In assay [6] the target is T4, Histone-lysine N-methyltransferase NSD2 (Homo sapiens, UniProt O96028).
T4 sequence (O96028 whole entry): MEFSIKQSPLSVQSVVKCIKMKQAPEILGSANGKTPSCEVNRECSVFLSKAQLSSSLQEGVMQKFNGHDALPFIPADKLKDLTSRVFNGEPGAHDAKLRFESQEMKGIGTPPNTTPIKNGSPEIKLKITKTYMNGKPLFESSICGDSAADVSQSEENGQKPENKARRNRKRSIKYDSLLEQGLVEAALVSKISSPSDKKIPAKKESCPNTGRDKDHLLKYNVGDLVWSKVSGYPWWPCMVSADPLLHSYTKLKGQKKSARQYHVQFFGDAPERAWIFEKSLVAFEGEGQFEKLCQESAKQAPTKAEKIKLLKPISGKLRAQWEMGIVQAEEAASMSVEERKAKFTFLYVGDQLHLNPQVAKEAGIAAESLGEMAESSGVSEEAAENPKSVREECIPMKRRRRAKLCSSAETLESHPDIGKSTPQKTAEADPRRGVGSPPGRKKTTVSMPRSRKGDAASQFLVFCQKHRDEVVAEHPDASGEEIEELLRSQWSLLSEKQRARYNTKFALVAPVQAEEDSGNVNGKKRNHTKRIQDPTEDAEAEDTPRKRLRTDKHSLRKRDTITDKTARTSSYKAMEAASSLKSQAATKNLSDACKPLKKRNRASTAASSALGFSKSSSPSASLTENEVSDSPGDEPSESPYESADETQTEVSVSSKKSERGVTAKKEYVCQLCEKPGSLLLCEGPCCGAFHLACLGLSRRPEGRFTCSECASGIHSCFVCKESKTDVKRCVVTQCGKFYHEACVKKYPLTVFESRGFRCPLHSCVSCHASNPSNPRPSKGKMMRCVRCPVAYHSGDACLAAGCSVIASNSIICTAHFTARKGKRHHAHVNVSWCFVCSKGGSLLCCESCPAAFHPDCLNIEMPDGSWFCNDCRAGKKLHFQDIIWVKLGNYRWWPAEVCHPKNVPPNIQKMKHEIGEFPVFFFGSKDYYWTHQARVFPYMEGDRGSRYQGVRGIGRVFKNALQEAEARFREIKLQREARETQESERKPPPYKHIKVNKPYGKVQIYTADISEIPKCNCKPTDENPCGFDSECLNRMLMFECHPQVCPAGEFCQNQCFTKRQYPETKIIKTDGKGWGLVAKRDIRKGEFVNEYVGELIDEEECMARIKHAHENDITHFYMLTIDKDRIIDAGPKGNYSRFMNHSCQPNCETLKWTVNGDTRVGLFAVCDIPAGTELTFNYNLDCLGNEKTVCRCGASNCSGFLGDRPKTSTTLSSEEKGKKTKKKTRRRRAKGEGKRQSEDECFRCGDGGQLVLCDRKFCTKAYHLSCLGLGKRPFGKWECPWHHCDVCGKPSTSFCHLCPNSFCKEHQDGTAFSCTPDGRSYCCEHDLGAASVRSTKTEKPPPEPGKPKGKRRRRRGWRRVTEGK
It is filed as biochemical.

Assay [7] is described as follows: HGIII-sPLA2 enzyme inhibition potency – biochemical, QFRET, IC50, dose response (AID 743457).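 Further: green fluorescence rise as the enzyme cleaves BODIPY PC-A2 in liposomes.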
The target of assay [8] is 1-phosphatidylinositol 4,5-bisphosphate phosphodiesterase gamma-1 (Homo sapiens, UniProt P19174). Nature of the assay: Counterscreen for inhibitors of phospholipase C isozymes (PLC-B3): Fluorescence-based biochemical high throughput dose response assay to identify inhibitors of phospholipase C isozymes (PLC-gamma1). For orientation: The purpose of a counterscreen is to sort out artefacts and off-target activity.
1-phosphatidylinositol 4,5-bisphosphate phosphodiesterase gamma-1, sequence (P19174 whole entry): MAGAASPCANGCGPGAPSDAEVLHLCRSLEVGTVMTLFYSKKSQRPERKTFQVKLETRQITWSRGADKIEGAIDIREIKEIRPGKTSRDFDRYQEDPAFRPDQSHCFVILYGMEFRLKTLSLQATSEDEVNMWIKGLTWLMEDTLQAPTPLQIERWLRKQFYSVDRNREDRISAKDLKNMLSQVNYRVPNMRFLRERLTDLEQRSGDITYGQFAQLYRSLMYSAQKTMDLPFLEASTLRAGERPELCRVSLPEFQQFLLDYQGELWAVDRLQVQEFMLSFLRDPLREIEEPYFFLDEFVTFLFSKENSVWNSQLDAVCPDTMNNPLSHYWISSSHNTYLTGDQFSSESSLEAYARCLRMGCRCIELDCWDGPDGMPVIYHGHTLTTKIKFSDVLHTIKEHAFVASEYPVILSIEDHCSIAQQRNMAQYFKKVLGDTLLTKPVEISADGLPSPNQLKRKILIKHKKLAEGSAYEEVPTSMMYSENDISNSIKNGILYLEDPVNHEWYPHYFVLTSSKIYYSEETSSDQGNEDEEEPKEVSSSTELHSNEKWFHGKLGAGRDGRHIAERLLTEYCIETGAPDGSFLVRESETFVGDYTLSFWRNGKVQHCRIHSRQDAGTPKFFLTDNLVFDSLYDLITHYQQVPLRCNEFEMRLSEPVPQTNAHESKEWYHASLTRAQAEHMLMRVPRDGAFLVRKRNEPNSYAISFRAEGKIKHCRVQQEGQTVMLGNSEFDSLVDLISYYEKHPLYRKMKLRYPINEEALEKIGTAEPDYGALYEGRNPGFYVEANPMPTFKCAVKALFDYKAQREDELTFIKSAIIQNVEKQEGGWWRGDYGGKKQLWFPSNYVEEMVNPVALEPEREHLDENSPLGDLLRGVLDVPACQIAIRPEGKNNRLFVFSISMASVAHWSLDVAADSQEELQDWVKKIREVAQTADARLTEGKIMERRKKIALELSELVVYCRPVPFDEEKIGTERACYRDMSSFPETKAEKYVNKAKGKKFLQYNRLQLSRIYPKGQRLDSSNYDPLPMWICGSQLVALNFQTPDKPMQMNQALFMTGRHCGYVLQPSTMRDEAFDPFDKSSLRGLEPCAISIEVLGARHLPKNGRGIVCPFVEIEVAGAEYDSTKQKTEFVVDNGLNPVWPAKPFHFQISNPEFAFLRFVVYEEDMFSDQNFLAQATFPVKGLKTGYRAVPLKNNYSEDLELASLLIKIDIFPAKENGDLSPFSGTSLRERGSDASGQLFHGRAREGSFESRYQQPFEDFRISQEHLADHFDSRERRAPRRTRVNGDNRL

Assay [9] deals with 1-phosphatidylinositol 4,5-bisphosphate phosphodiesterase beta-3 (Homo sapiens, UniProt Q01970). As to the kind of experiment: Fluorescence-based biochemical high throughput dose response assay to identify inhibitors of phospholipase C isozymes (PLC-B3).
1-phosphatidylinositol 4,5-bisphosphate phosphodiesterase beta-3, sequence (Q01970 whole entry): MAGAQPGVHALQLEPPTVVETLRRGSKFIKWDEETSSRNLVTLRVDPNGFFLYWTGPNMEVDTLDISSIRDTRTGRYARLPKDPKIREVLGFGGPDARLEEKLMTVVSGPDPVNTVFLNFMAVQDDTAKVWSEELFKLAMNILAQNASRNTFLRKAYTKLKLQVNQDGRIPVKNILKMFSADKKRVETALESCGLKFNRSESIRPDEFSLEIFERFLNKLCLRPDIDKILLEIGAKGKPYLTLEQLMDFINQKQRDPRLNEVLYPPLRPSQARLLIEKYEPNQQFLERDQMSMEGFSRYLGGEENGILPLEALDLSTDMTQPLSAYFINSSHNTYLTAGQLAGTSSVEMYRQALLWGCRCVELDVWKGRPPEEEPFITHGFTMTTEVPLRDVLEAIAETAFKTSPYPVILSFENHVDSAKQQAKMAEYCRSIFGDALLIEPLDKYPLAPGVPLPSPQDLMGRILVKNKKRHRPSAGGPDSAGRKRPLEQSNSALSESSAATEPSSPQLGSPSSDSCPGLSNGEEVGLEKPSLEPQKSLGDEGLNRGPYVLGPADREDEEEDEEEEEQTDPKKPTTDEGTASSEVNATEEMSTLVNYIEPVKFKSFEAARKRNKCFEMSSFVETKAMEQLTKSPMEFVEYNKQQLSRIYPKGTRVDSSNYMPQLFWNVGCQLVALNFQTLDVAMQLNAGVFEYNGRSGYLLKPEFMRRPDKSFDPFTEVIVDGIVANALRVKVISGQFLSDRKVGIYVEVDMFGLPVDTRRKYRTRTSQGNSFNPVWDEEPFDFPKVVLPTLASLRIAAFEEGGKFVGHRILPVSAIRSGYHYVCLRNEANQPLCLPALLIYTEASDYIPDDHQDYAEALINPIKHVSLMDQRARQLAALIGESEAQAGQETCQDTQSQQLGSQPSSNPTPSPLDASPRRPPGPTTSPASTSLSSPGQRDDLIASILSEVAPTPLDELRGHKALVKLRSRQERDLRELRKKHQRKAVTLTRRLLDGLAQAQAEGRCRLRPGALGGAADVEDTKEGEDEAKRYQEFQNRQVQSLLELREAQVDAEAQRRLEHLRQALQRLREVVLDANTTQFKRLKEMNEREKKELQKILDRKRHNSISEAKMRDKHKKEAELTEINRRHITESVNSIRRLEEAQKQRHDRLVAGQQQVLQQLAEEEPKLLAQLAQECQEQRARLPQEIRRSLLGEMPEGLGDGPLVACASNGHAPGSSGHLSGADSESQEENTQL
A short description of assay [10]: cells. It is filed as functional, cell-based.
A short description of assay [11]: cells. The class given is functional, cell-based. This is another data set of the same source.
The target of another assay is Paired box protein Pax-8 (Homo sapiens, UniProt Q06710). Nature of the assay: PAX8 transcriptional activity inhibition in RMG-I – RMG-I cells, luciferase, cherry-pick, dose response (AID 687027).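 Further: luciferase reporter driven by Pax8 target thyroperoxidase promoter measured by SteadyGlo luminescence.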 The class given is functional, cell-based.
Paired box protein Pax-8, sequence (Q06710 whole entry): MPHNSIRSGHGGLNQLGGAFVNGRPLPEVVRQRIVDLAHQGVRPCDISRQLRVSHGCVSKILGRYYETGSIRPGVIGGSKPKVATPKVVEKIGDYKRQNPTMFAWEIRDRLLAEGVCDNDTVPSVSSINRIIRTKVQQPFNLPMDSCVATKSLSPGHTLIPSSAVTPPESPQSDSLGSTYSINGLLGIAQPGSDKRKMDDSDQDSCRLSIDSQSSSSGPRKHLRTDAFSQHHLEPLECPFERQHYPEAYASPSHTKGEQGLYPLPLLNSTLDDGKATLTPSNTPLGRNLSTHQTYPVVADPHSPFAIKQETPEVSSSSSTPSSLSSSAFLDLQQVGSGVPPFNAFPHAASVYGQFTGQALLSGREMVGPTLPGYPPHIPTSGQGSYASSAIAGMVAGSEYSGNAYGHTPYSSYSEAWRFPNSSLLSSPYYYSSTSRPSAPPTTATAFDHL
Assay [12] can be described thus: inhibitors acting on PAX2 in cells – cell-based, plate reader, dry powder samples, selectivity assay for PAX8 inhibitor project, dose response (AID 743048).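 Further: HEK293 cells carrying a WT1 promoter luciferase reporter driven by expressed Pax2; potency is for inhibition of Pax2 driven reporter signal.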 The class given is functional.
Assay [13] in a line: COV362 cell viability loss – plate reader, dry powder, SA12, cytotoxicity control for PAX8 inhibitor project, dose response (AID 743144). It is filed as functional, cell-based.
Assay [14] can be described thus: A2780 cell killing – plate reader, dry powder samples, cytotoxicity control, dose response (AID 743046). It is filed as functional, cell-based.
Assay [15] in a line: OVCAR-3 cell viability loss – plate reader, dry powder samples, PAX8 inhibitor project, dose response (AID 743044). It is filed as functional, cell-based.
Assay [16] is described as follows: PAX5 cellular inhibition readout – cell-based, plate reader, dry powder samples, selectivity assay for PAX8 inhibitor project, dose response (AID 743047).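 Further: HEK293 cells carrying a Pax5 driven CD19 promoter luciferase reporter; potency of inhibitors that lower reporter luminescence.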 The class given is functional.
Assay [17] in a line: COV434 cell viability loss – plate reader, dry powder, SA7, cytotoxicity control for PAX8 inhibitor project, dose response (AID 743145). It is filed as functional, cell-based.
Assay [18] in a line: OV-90 cell viability loss – plate reader, dry powder, SA8, PAX8 inhibitor project, dose response (AID 743149). The class given is functional, cell-based.
Assay [19] can be described thus: OVCAR8 cell viability loss – plate reader, dry powder samples, PAX8 project, dose response (AID 743197). As to conditions: OVCAR-8. The class given is functional, cell-based.
The nature of assay [20]: PAX8-dependent cell viability loss – plate reader, dry powder, dose response (AID 743049). The class given is functional, cell-based.
A short description of assay [21]: A549 cell cytotoxicity, dose response, cytotoxicity control, plate reader, cherry-pick, antagonist series (AID 743412). It is filed as functional, cell-based.
Assay [22] can be described thus: blockers of bursicon-stimulated LGR2 cAMP reporter – cell-based, HEK293, CRE-luciferase reporter, cherry pick, set 2, dose response (AID 743343).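 Further: transfected cells were stimulated with diluted bursicon conditioned medium after compound addition.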 It is filed as functional. (Reporter assays use an easily measured gene product as a stand-in for the process of interest.)
Assay [23] is described as follows: blockade of melanocortin 4 receptor signaling – cell-based, plate reader, cherry pick, counter-screen for LGR2 antagonist project, dose response (AID 743444).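 Further: transfected HEK 293 cells stimulated with alpha-MSH peptide; potency of inhibitors of the alpha-MSH evoked signal.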 It is filed as functional.

Calls of active or inactive are those of the source. A value given as a limit tells only on which side of the number the result lay.

Take `CC(=O)C(=CNc1cc(-c2ccc(C)cc2)nn1-c1ccccc1)C(C)=O`: the AC50 in [1] was 26 µM (active).

For the molecule `CCN(CC)S(=O)(=O)c1ccc(C(=O)OCC(=O)Nc2ccc(-c3nc4ccc(C)cc4s3)cc2)cc1`, in assay [2], the EC50 was > 67.5 µM (inactive).

For the molecule `Cc1cc2cc(CCNC(=O)c3cccs3)c(O)nc2cc1C`, the half-maximal activity concentration (AC50) in [1] was 26 µM (active).

Turning to `CC[n+]1ccc(/C=C/c2ccc(N(C)C)cc2)c2ccccc21`, the IC50 is 9.07 µM (active) on Nonstructural protein 1, 36.1 µM (active) in assay [4] and 24.6 µM (inactive) in [7]. Further, the CC50 in [3] was 49.2 µM (active). Moreover, the values for the AC50 in assay [5] and in [6] were 2.21 µM (active) and 13.4 µM (active), respectively.

For the molecule `COC(=O)C(C)(C)c1cccnc1C#N`, the values for the IC50 in [8] and in [9] were 2.7 µM (active) and > 122 µM (inactive), respectively.

As for `CSc1ccc(/C=N/Nc2ccc(Cl)c(C(=O)O)c2)cc1`, the EC50 was > 350 µM (not active) in “cells [10]”, 7.23 µM (active) in “cells [11]” and > 67.5 µM (inactive) in [2].

Regarding `CCCC#Cc1ccc([C@H]2[C@@H](C#N)N(C(=O)C3CCCCC3)[C@H]2CO)cc1`, the AC50 was 12.7 µM (active) at Paired box protein Pax-8; 7.11 µM (active) in assay [12]; 49.9 µM (active) in assay [13]; 23.9 µM (active) in assay [14]; 29.6 µM (active) in assay [15]; 3.5 µM (active) in [16]. Also, the AC50 in assay [17] is 30 µM (active); in assay [18], 28 µM (active); in assay [19], 30.3 µM (active); in assay [20], 13.2 µM (active).

As for `CCCNC(=O)C[C@H]1CC[C@H]2[C@@H](COc3ccc(NC(=O)c4cncs4)cc3C(=O)N2C)O1`, the IC50 in [8] is 59.1 µM (inactive); in [9], 55.4 µM (inactive).

`CN1c2ccc(-c3ccc(F)cc3)cc2[C@H]2[C@H](CCN2C(=O)Nc2ccc(F)cc2)[C@H]1CO`: the AC50 in assay [21] was 24.3 µM (active); in assay [22] it was 18.6 µM (active); in assay [23] it was 18.4 µM (active).
